Experimental data as given in PMC8497620, “Structure and inhibition of Cryptococcus neoformans sterylglucosidase to develop antifungal agents” (Nature Communications, 2021).
“And” between values parts separate entries of the source, which are not always exact repeats. Identical values can stand only once. Like-named read-outs stand apart in the source and are kept apart here.

How the values were obtained:
[1] = system: human lung epithelial cancer cell line A549; settings: LD50 A549 / IC50 Sgl1
Description: The cells were maintained in Dulbecco’s modified eagle medium containing 10% fetal bovine serum and 1% penicillin–streptomycin. At passage 11, 10^5 cells were transferred into each well of 96-well plates and cultured for 18–24 h for the cells to adhere to the well surface. After, the medium was removed and a fresh medium containing the selected compounds at a concentration range of 1–512 μM were added to the wells. Controls with equivalent serial concentrations of DMSO were also evaluated and compared with a control without DMSO. The plate was incubated at 37 °C with 5% CO2. After 24 h, the supernatant was removed and 50 μL of 5 mg/mL 3-(4,5-dimethylthiazol-2-yl)-2,5-diphenyltetrazoliumbromide (MTT) solution in phosphate-buffered saline (PBS) was added to each well. The plates were incubated for an additional 4 h and the formazan crystals formed inside the cell was dissolved by adding 50 μL DMSO.

[2] = molecular target: C. neoformans Sgl1 (Cryptococcus neoformans var. grubii, UniProt J9W473); test: Sgl1 inhibition with res-glp substrate (HTS, single-compound dose-response); assay type: biochemical; settings: for inhibition at 0.125 µM: read-out: % Sgl1 Inhibition, 0.125 µM compound; for inhibition at 0.125 µM / inhibition at 0.5 µM / inhibition at 1 µM / inhibition at 2 µM / inhibition at 4 µM / inhibition at 8 µM / inhibition at […] / % Sgl1 Inhibition: substrate resorufin 3β-D-glucopyranoside (100 µM); for inhibition at 0.5 µM: read-out: % Sgl1 Inhibition, 0.5 µM compound; for inhibition at 1 µM: read-out: % Sgl1 Inhibition, 1 µM compound; for inhibition at 2 µM: read-out: % Sgl1 Inhibition, 2 µM compound; for inhibition at 4 µM: read-out: % Sgl1 Inhibition, 4 µM compound; for inhibition at 8 µM: read-out: % Sgl1 Inhibition, 8 µM compound; for inhibition at […]: read-out: % Sgl1 Inhibition, […] compound; for IC50: res-glp as substrate (100 µM), primary screen, read-out: IC50 against Sgl1
Sequence of C. neoformans Sgl1 (J9W473 entry or part of it): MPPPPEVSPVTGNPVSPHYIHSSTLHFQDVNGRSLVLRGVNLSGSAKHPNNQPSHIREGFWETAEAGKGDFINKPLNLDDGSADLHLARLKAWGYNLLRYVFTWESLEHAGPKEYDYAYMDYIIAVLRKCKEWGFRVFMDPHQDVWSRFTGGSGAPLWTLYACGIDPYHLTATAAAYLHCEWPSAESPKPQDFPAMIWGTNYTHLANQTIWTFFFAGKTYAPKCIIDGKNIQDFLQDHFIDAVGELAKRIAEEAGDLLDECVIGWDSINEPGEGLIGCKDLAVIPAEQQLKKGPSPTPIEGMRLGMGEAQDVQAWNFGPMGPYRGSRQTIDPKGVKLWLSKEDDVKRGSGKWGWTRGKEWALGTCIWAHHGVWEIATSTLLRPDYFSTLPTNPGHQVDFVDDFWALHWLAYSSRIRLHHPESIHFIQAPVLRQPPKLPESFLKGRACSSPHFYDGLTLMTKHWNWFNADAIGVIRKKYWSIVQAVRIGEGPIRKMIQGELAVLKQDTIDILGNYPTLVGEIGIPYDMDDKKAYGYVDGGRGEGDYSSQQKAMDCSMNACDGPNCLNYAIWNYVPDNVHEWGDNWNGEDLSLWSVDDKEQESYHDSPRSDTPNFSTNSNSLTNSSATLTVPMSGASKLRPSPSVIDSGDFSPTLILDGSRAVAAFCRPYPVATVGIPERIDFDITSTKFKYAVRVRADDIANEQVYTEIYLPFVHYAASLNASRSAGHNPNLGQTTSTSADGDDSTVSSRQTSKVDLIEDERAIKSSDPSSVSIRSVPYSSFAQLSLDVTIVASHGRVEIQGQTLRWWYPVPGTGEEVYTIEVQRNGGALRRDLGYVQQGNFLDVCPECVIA

[3] = molecular target: T1, Cerezyme (Homo sapiens, UniProt P04062, R534H); test: Cerezyme activity on mammalian C18-glucosylceramide in presence of hits (LC-MS); assay type: biochemical; settings: for C18-ceramide: hits at 100 µM, 10 µg Cerezyme, 10 µg mammalian C18-glucosylceramide, pH 5.5, 37°C, 3 hours; for inhibition of human Cerezyme: physiological mammalian glucosylceramide substrate, 100 µM compound
T1 construct: purchased Genzyme Corporation, Cambridge, MA, USA
T1 sequence (P04062 40-536 R534H): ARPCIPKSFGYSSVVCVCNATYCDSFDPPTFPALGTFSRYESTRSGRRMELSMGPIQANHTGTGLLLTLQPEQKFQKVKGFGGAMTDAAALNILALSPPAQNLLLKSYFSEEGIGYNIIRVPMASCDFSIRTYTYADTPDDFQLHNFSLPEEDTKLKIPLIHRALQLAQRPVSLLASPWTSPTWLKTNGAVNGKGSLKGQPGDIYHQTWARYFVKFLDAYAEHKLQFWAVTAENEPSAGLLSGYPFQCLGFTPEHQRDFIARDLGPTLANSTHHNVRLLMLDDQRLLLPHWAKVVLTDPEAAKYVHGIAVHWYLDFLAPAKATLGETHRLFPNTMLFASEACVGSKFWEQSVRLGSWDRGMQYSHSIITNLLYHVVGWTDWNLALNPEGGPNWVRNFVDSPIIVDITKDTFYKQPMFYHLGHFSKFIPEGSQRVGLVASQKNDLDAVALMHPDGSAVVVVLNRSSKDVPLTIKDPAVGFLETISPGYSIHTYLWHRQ
Description: Supplementary figure 8. Cerezyme is not inhibited by its 1, 9 and 15. 10 µg of Cerezyme was added to 10 µg of mammalian C18-glucosylceramide in the presence of 100 µM of compound hits. The reactions were performed in 50 mM sodium acetate buffer pH5.5 and incubated at 37°C for 3 hours. The amount of C18-ceramide formed was quantified by LC-MS. There was no significant difference between the control (no drug) and samples with 100 µM of hits 1, 9 and 15 (p>0.05). Statistical analysis by one-way ANOVA, Dunnett's Multiple Comparison Test. Data represent the mean +/- SD of n=3 independent experiments.

Compound	selectivity index (SI = LD50/IC50) [1]	inhibition at 0.125 µM [2]	inhibition at 0.5 µM [2]	inhibition at 1 µM [2]	inhibition at 2 µM [2]	inhibition at 4 µM [2]	inhibition at 8 µM [2]	inhibition at […] [2]	IC50 [2]	C18-ceramide [3]	inhibition of human Cerezyme [3]	% Sgl1 Inhibition ([2]; 0.125 µM compound)	% Sgl1 Inhibition ([2]; 0.5 µM compound)	% Sgl1 Inhibition ([2]; 1 µM compound)	% Sgl1 Inhibition ([2]; 2 µM compound)	% Sgl1 Inhibition ([2]; 4 µM compound)	% Sgl1 Inhibition ([2]; 8 µM compound)	selectivity index (SI = LD50/IC50) ([1]; listed as 15)
COc1cccc(-c2ncc(CN3CCC(O)(CO)CC3)s2)c1 [Hit 1]	> 500	0%	14%	45.8%	56.1%	74%	90.2%	0%	~1000 nM and 1000 nM	871.82 pmol/mL and 1017.11 pmol/mL and 1021.42 pmol/mL	not inhibited							
CN1C[C@@H](NC(=O)Cc2ccc3c(c2)NC(=O)CO3)C[C@@H]1CO [Hit 9]	> 500	57.2%	84%	91.3%	95.5%	97.5%	98.6%	73.1%	~1000 nM	1045.62 pmol/mL and 1138.29 pmol/mL and 953.48 pmol/mL	not inhibited	56.0175% and 54.9266% and 54.4568%	83.3956% and 82.99% and 82.7099%	91.001% and 90.7947% and 90.4821%	95.2753% and 95.0933% and 95.0009%	97.4258% and 97.3045% and 97.2378%	98.6119% and 98.5721% and 98.4808%	
CC(C)c1nc(N[C@@H]2C[C@@H](CO)N(C)C2)c2cnn(C)c2n1 [Hit 15]	> 500	10.2%	27.9%	40.8%	59.6%	76.4%	85.5%	14.9%	~1000 nM and 1000 nM	1251.6 pmol/mL and 855.67 pmol/mL and 1299.99 pmol/mL	not inhibited	9.082% and 9.377% and 8.377%	26.2814% and 26.2434% and 24.9511%	39.5402% and 38.9055% and 37.6785%	58.3844% and 57.9199% and 56.5095%	75.564% and 74.8313% and 74.139%	85.0771% and 84.7714% and 84.105%	> 512
